No end group written: not given here.
Assays:
endothelial cells [1] = conditions: 48 h of treatment; 129% in the Ang II group; cited from earlier work
Description: All three concentrations produced highly similar su ...

endothelial cells [2] = system: endothelial cells; parameters: method as in PMID 37501259; conditions: Ang II-treated endothelial cells, cited from earlier work
EA.hy926 cells [3] = experiment: MTT cytotoxicity assay; conditions: EA.hy926, 24 h, 0.0625 to 1 mg/mL; ISO 10993-5 limit: viability above 70%
Procedure: Cell culture. EA.hy926 endothelial cells were cultured in high-glucose Dulbecco’s Modified Eagle Medium (DMEM) supplemented with 10% fetal bovine serum (FBS) and 1% penicillin–streptomycin. Cells were maintained in a humidified incubator at 37 °C with 5% CO2. When cell confluence reached approximately 70–80%, subculturing was performed for subsequent experiments.
Cytotoxicity assay. The cytotoxicity of the peptides was evaluated using the MTT assay [29]. […] After incubation at 37 °C for 4 h, the supernatant was carefully removed, and 150 μL of DMSO was added to dissolve the formazan crystals. The plate was shaken for 10 min, and the absorbance was measured at 490 nm using a microplate reader.

EA.hy926 cells [4] = experiment: ET-1 level in Ang II-stimulated cells (ELISA); type: cell-based; conditions: captopril after Ang II; control 13.82, Ang II 15.65
Procedure: (§1) To evaluate the effect of the peptide on endothelial function, NO and ET-1 levels were measured in this study. Briefly, EA.hy926 cells were seeded in 6-well plates at a density of 4 × 10^5 cells/well and allowed to adhere overnight. After removing the medium, cells were incubated with 1 μmol/L Ang II for 12 h to induce endothelial dysfunction. Subsequently, the peptide solutions at different concentrations (0.1, 0.2, and 0.4 mg/mL) or the captopril solutions were added, and the cells were incubated for an additional 24 h. For the blank control group, the cells received no treatment. After incubation, the culture supernatants were collected and centrifuged to remove debris. Both NO and ET-1 contents in the supernatants were quantified using commercial kits according to the manufacturer’s protocols. NO content was determined using the Griess reaction (OD = 550 nm), and ET-1 levels were measured via enzyme-linked immunosorbent assay (ELISA) (OD = 450 nm). Absorbance values were recorded at the corresponding wavelengths using a microplate reader (Spark 10M, Tecan, Männedorf, Switzerland).

EA.hy926 cells [5] = experiment: Wound healing assay (Ang II-induced migration); type: cell-based; conditions: captopril 0.2 mg/mL, Ang II-induced
Procedure: The effect of peptides on endothelial cell migration was evaluated using a wound healing assay. Briefly, EA.hy926 cells were seeded into 6-well plates and cultured at 37 °C in a humidified atmosphere containing 5% CO2. When the cells reached full confluence, they were treated with 1 μmol/L Ang II for 12 h to induce endothelial dysfunction. Subsequently, a straight scratch was created across the cell monolayer using a sterile 200 μL pipette tip. Detached cells were gently removed by rinsing with PBS, leaving a clear cell-free wound area. To minimize proliferation interference, cells were then incubated in high-glucose DMEM containing 1% FBS, supplemented with different concentrations of the peptides or captopril. Images of the same wound area were captured at 0 h, 6 h, and 24 h using a fluorescence microscope (Axio Observer, Zeiss, Jena, Germany), and the wound area was quantified using ImageJ software (version 1.54g).

EA.hy926 cells [6] = experiment: SOD activity in H2O2-damaged cells; type: cell-based; conditions: captopril; vs H2O2 group
Procedure: (§2) The activities of SOD and GSH-Px were assessed as follows. EA.hy926 cells were seeded in 6-well plates at 4 × 10^5 cells per well and cultured overnight. After attachment, the cells were serum-starved in high-glucose DMEM containing 1% FBS for 12 h, and then treated for 24 h with peptide solutions at the indicated concentrations or with captopril. […] After treatment, the cells were washed with ice-cold PBS, lysed on ice, and centrifuged to collect the supernatants. SOD and GSH-Px activities were measured spectrophotometrically at 550 nm and 412 nm, respectively, using a microplate reader. Enzyme activities were calculated, normalized to total protein content, and expressed as U/mg protein.

EA.hy926 cells [7] = experiment: NO level in Ang II-stimulated cells (Griess); type: cell-based; conditions: captopril after Ang II; control 109.8, Ang II 58.95
Procedure: as §1

EA.hy926 cells [8] = experiment: GSH-Px activity in H2O2-damaged cells; type: cell-based; conditions: captopril; vs H2O2 group
Procedure: as §2

Molecule: SPIH [soybean protein-derived peptide]
- Endothelial wound healing (endothelial cells [1]): 92%
- NO content (endothelial cells [2]; 31.4 ± 0.7 before): 43.7 ± 0.1 µmol/L
- NO increase (endothelial cells [2]): 39.3%

Molecule: PYPDWSFAK [PYPDWSFAK]
- Cytotoxicity (EA.hy926 cells [3]): non-cytotoxic

Molecule: C[C@H](CS)C(=O)N1CCC[C@H]1C(=O)O [captopril]
- ET-1 content (EA.hy926 cells [4]): 12.70 ± 0.48 pg/mg prot
- Migration rate (EA.hy926 cells [5]; 6 h, Ang II alone 42.44): 25.77 ± 2.49%
- Migration rate (EA.hy926 cells [5]; 24 h, Ang II alone 89.68): 57.52 ± 1.92%
- SOD improvement (EA.hy926 cells [6]): 70.9%
- NO level (EA.hy926 cells [7]): 97.86 ± 4.47 μmol/g prot
- GSH-Px improvement (EA.hy926 cells [8]): 38.8%

Reference: paper PMC12785803, “Novel ACE-Inhibitory Peptides from Royal Jelly Proteins: Comprehensive Screening, Mechanistic Insights, and Endothelial Protection” (Foods, 2025)
